Patent US20250188151A1, “C-JUN ANTAGONIST PEPTIDES” (The University of Bath, priority 2022, published 2025)
Bridge positions count the residues as written; N and C are the ends. Peptide text beside a SMILES is read from it.

Tests used:
[1] = biological target: cJun bZIP (Homo sapiens, UniProt P05412, S292Y); test: CD spectra and thermal denaturation of peptide/cJun heterodimers; settings: peptide (5 μM)/c-Jun (5 μM) heterodimer; Table 6
[2] = CD spectra and thermal denaturation of peptide-only samples (helicity, homodimer Tm); settings: for change in fraction helicity from lactamisation: cyclised vs its linear form
Method: Circular Dichroism (CD): An Applied Photophysics Chirascan was used for CD measurements, with a 200 μL sample in a 1 mm path length CD cell. Protein/DNA samples were suspended in 150 mM potassium phosphate, 150 mM potassium fluoride and 5 mM TCEP at pH 7.4 and were equilibrated for 30 minutes before measurement. […] These scans were averaged and converted to molar residue ellipticities (MRE). Thermal denaturation experiments were performed by measuring the ellipticity at 222 nm over a 1 to 90° C. gradient at 1° C. increments. Post-melt scans at 20° C. confirmed the transitions were reversible as they overlaid within 10% of the pre-melt scan.
Circular Dichroism (CD): An Applied Photophysics Chirascan was used for CD measurements, with a 200 μL sample in a 1 mm path length CD cell. Protein/DNA samples were suspended in 150 mM potassium phosphate, 150 mM potassium fluoride and 5 mM TCEP at pH 7.4 and were equilibrated for 30minutes before measurement. […] Thermal denaturation experiments were performed by measuring the ellipticity at 222 nm over a 1 to 90° C. gradient at 1° C. increments. Post-melt scans at 20° C. confirmed the transitions were reversible as they overlaid within 10% of the pre-melt scan.
Peptide helicity was determined by quantifying the CD signal at 222 nm of peptide only samples. Thermal denaturation experiments were then used to determine the Tm of peptide-c-Jun heterodimers, which was used as an approximate measure of target engagement. […] The same 60 amino acid c-Jun bZIP construct was used for all experiments, regardless of antagonist peptide length.

[3] = biological target: T1, cJun/TRE DNA interaction (Homo sapiens, UniProt P05412, S292Y); test: CD cJun/TRE DNA antagonism (shift of TRE DNA peak at ~281 nm, Hill fit); assay type: biochemical
T1 construct: The same 60 amino acid c-Jun bZIP construct was used for all experiments; His-SUMO (N, cleaved yes); made in house; host or cells: E. coli
From the text: Briefly, in TBS the coding region for the essential gene dihydrofolate reductase (DHFR) is mutated to incorporate TRE sites so that introduction of c-Jun to this gene inside E. coli produces a transcriptional block that abrogates cell proliferation. The TRE site-bound c-Jun molecules sterically prevent RNA polymerase transcribing the essential gene and this can only be restored upon introduction of an effective c-Jun/TRE antagonist. Consequently, the survival of a particular cell is controlled by the ability of a peptide library member to remove the c-Jun transcriptional block and therefore to restore DHFR activity. TBS thus facilitates the identification of therapeutically valuable sequences. Further details for the TBS assay are provided in WO2020128015, which is incorporated herein by reference in its entirety. […] The TRE-DNA construct produces a positive CD peak at ˜281 nm, which decreases in intensity upon c-Jun binding. […] This method allows for the calculation of an IC50 value by fitting the titration data to a Hill equation. In some embodiments, the c-Jun antagonist is able to inhibit the DNA-binding activity of c-Jun within 10-fold of the ability of HingeW to inhibit the DNA-binding activity of c-Jun (e.g. the c-Jun antagonist has a reduced ability to inhibit the DNA-binding activity of c-Jun that is within 10-fold of that determined for HingeW). In some embodiments, the c-Jun antagonist is able to inhibit the DNA-binding activity of c-Jun within 9-fold, preferably within 8-fold, more preferably within 7-fold, even more preferably within 6-fold, yet more preferably within 5-fold of the ability of HingeW to inhibit the DNA-binding activity of c-Jun. The ability of the c-Jun antagonist and HingeW to inhibit the DNA-binding activity may be measured using the TBS assay (e.g. by quantifying the number of colonies) or by determining the IC50 using a circular dichroism assay described herein. Optionally, the c-Jun antagonist may have this activity when cross-linked. Methods for cross-linking peptides are described in more detail below.
Therefore, the acidic domain was the initial focus for optimisation. 1 was iteratively truncated (2-6) to investigate the effect on c-Jun binding and c-Jun/TRE DNA antagonism. […] Thermal denaturation experiments were then used to determine the Tm of peptide-c-Jun heterodimers, which was used as an approximate measure of target engagement. CD was also used to investigate the ability of the functional activity of peptides in antagonising the c-Jun/TRE DNA interaction. The TRE-DNA construct used produces a positive CD peak at ˜281 nm (no c-Jun absorbance at this wavelength allows for direct measurement of DNA upon binding) which decreases in intensity upon c-Jun binding. […] This allowed for the calculation of an IC50 value by fitting the titration data to a Hill equation. […] The same 60 amino acid c-Jun bZIP construct was used for all experiments, regardless of antagonist peptide length.

[4] = biological target: cJun (Homo sapiens, UniProt P05412, S292Y); test: Isothermal titration calorimetry, Example 2 (PEAQ-ITC); assay type: binding; parameters: The same 60 amino acid c-Jun bZIP construct was used for all experiments; His-SUMO (N, cleaved yes); made in house; host or cells: E. coli; settings: ITC; for Stoichiometry, n: c-Jun-peptide interaction
Method: 2 μL injections of antagonist peptide at 25-200 μM were injected into the cell containing cJun at 2.5-20 μM. Software was used to record and analyse the heat change upon addition. Control experiments involved the injection of the antagonist peptide sample into the cell containing ITC buffer alone to determine the heat of dilution which was subtracted. The resulting binding data were fit to a one site binding model to extract the enthalpy change of binding (ΔH) and the equilibrium binding constant (KD), from which the free energy change of binding (ΔG) and the entropy change of binding (ΔS) was calculated (Wiseman et al., 1989). Thermodynamic parameters are presented as an average of two independent experiments with errors given as one standard deviation.

Question: With `CC[C@H](C)[C@H](NC(=O)[C@H](CCC(=O)O)NC(=O)[C@H](CCCCN)NC(=O)[C@H](CCCNC(=N)N)NC(=O)[C@H](CC(C)C)NC(=O)[C@H](C)NC(=O)[C@H](Cc1ccc(O)cc1)NC(=O)[C@H](CC(N)=O)NC(=O)[C@H](CCCNC(=N)N)NC(=O)[C@H](CCC(=O)O)NC(=O)[C@H](CCC(=O)O)NC(=O)[C@H](CC(C)C)NC(=O)[C@H](CCC(N)=O)NC(=O)[C@H](CCC(=O)O)NC(=O)[C@@H](NC(=O)[C@H](CCC(=O)O)NC(=O)[C@H](CCC(=O)O)NC(=O)[C@H](CCC(=O)O)NC(=O)[C@H](CC(C)C)NC(=O)[C@@H](NC(=O)[C@H](CC(=O)O)NC(=O)[C@H](CCC(=O)O)NC(=O)[C@H](CCC(=O)O)NC(=O)[C@@H](NC(=O)[C@@H](NC(=O)[C@H](CC(C)C)NC(=O)[C@@H]1CC(=O)NCCCC[C@H](NC(C)=O)C(=O)N[C@@H](CCC(=O)O)C(=O)N[C@@H](C)C(=O)N[C@@H](CCC(=O)O)C(=O)N1)C(C)C)C(C)C)C(C)C)[C@@H](C)CC)C(=O)N[C@@H](CCCCN)C(=O)N[C@@H](CC(=O)O)C(=O)N[C@@H](CC(C)C)C(=O)N[C@@H](CCC(N)=O)C(=O)N[C@@H](CC(=O)O)C(=O)N[C@@H](CCC(N)=O)C(N)=O` [Peptide 13] (Ac-KEAEDLVVEEDVLEEEIEQLEERNYALRKEIKDLQDQ-NH2; lactam 1-5) as the compound, how does the “Tm (° C.)” value [1] read?
Answer: The value was 58.5 ± 1.0 °C.

Question: What about the “change in fraction helicity from lactamisation” value [2] of the same compound?
Answer: The value was roughly 1%.

Question: With “RIKAERKRMRNRIAASKCRKRKLERIARLEEKVKTLKAQNYELASTANMLREQVAQLGAP [cJun]” as the compound, how does the “Fraction helicity at 20° C. (CD)” value ([2]; peptide alone) read?
Answer: The value was 14.0%.

Question: And the “Tm (° C.) (CD)” value ([2]; peptide alone (homodimer))?
Answer: Its value is 39.8 °C.

Question: For `CC[C@H](C)[C@H](NC(=O)[C@H](CCC(=O)O)NC(=O)[C@H](CCCCN)NC(=O)[C@H](CCCNC(=N)N)NC(=O)[C@H](CC(C)C)NC(=O)[C@H](C)NC(=O)[C@H](Cc1ccc(O)cc1)NC(=O)[C@H](CC(N)=O)NC(=O)[C@H](CCCNC(=N)N)NC(=O)[C@H](CCC(=O)O)NC(=O)[C@H](CCC(=O)O)NC(=O)[C@H](CC(C)C)NC(=O)[C@H](CCC(N)=O)NC(=O)[C@H](CCC(=O)O)NC(=O)[C@@H](NC(=O)[C@H](CCC(=O)O)NC(=O)[C@@H]1CC(=O)NCCCC[C@H](NC(=O)[C@H](CCC(=O)O)NC(=O)[C@H](CCC(=O)O)NC(=O)[C@@H](NC(=O)[C@@H](NC(=O)[C@H](CC(C)C)NC(=O)[C@H](CCC(=O)O)NC(=O)[C@H](CCC(=O)O)NC(=O)[C@H](C)NC(=O)[C@H](CCC(=O)O)NC(C)=O)C(C)C)C(C)C)C(=O)N[C@@H](C(C)C)C(=O)N[C@@H](CC(C)C)C(=O)N[C@@H](CCC(=O)O)C(=O)N1)[C@@H](C)CC)C(=O)N[C@@H](CCC(=O)O)C(=O)N[C@@H](CC(=O)O)C(=O)N[C@@H](CC(C)C)C(=O)N[C@@H](CCC(N)=O)C(=O)N[C@@H](CCCCN)C(=O)N[C@@H](CCC(N)=O)C(N)=O` [Peptide 17] (Ac-EAEELVVEEKVLEDEIEQLEERNYALRKEIEDLQKQ-NH2; lactam 10-14), which “effect of lactamisation on antagonism” value ([3]; P=0.24) is on record?
Answer: The value was “did not lead to a significant increase in antagonism”.

Question: What about the “Tm (° C.)” value [1] of the same compound?
Answer: Its value is 64.0 ± 0.8 °C.

Question: What about the “change in fraction helicity from lactamisation” value [2] of the same compound?
Answer: Its value is roughly 5%.

Question: And the “ΔG” value [4]?
Answer: Its value is -9.766 ± 0.0669 kcal/mol.

Question: And the “ΔH” value [4]?
Answer: Its value is -14.1 ± 0.402 kcal/mol.

Question: And the “−TΔS” value [4]?
Answer: Its value is 4.336 ± 0.406 kcal/mol.

Question: And the “Stoichiometry, n” value [4]?
Answer: The value was 1.20 ± 0.02.

Question: What does the source list for `CC[C@H](C)[C@@H]1NC(=O)[C@H](CCC(=O)O)NC(=O)[C@@H](NC(=O)[C@H](CCCNC(=N)N)NC(=O)[C@H](CC(C)C)NC(=O)[C@H](C)NC(=O)[C@H](Cc2ccc(O)cc2)NC(=O)[C@H](CC(N)=O)NC(=O)[C@H](CCCNC(=N)N)NC(=O)[C@H](CCC(=O)O)NC(=O)[C@H](CCC(=O)O)NC(=O)[C@H](CC(C)C)NC(=O)[C@H](CCC(N)=O)NC(=O)[C@H](CCC(=O)O)NC(=O)[C@@H](NC(=O)[C@H](CCC(=O)O)NC(=O)[C@H](CCC(=O)O)NC(=O)[C@H](CCC(=O)O)NC(=O)[C@H](CC(C)C)NC(=O)[C@@H](NC(=O)[C@H](CC(=O)O)NC(=O)[C@H](CCC(=O)O)NC(=O)[C@H](CCC(=O)O)NC(=O)[C@@H](NC(=O)[C@@H](NC(=O)[C@H](CC(C)C)NC(=O)[C@H](CCC(=O)O)NC(=O)[C@H](CCC(=O)O)NC(=O)[C@H](C)NC(=O)[C@H](CCC(=O)O)NC(C)=O)C(C)C)C(C)C)C(C)C)[C@@H](C)CC)CCCCNC(=O)C[C@@H](C(=O)N[C@@H](CC(C)C)C(=O)N[C@@H](CCC(N)=O)C(N)=O)NC(=O)[C@H](CCC(=O)O)NC1=O` [Peptide 29] (Ac-EAEELVVEEDVLEEEIEQLEERNYALRKEIEDLQ-NH2; lactam 28-32)?
Answer: fold reduction in cJun/TRE antagonism relative to 1 ([3]; ratio of CD IC50): 10.4 fold; Tm (° C.) [1]: 57.2 ± 0.4 °C

Question: With `CC[C@H](C)[C@H](NC(=O)[C@H](CCC(=O)O)NC(=O)[C@H](CCCCN)NC(=O)[C@H](CCCNC(=N)N)NC(=O)[C@H](CC(C)C)NC(=O)[C@H](C)NC(=O)[C@H](Cc1ccc(O)cc1)NC(=O)[C@H](CC(N)=O)NC(=O)[C@H](CCCNC(=N)N)NC(=O)[C@H](CCC(=O)O)NC(=O)[C@H](CCC(=O)O)NC(=O)[C@H](CC(C)C)NC(=O)[C@H](CCC(N)=O)NC(=O)[C@H](CCC(=O)O)NC(=O)[C@@H](NC(=O)[C@H](CCC(=O)O)NC(=O)[C@H](CCC(=O)O)NC(=O)[C@H](CCC(=O)O)NC(=O)[C@H](CC(C)C)NC(=O)[C@@H](NC(=O)[C@H](CC(=O)O)NC(=O)[C@H](CCC(=O)O)NC(=O)[C@H](CCC(=O)O)NC(=O)[C@@H](NC(=O)[C@@H](NC(=O)[C@H](CC(C)C)NC(C)=O)C(C)C)C(C)C)C(C)C)[C@@H](C)CC)C(=O)N[C@@H](CCC(=O)O)C(=O)N[C@@H](CC(=O)O)C(=O)N[C@@H](CC(C)C)C(=O)N[C@@H](CCC(N)=O)C(=O)N[C@H]1CCCCNC(=O)C[C@@H](C(=O)N[C@@H](CC(C)C)C(N)=O)NC(=O)[C@H](CCC(=O)O)NC(=O)[C@H](CC(C)C)NC(=O)[C@H](CCC(N)=O)NC1=O` [Peptide 10] (Ac-LVVEEDVLEEEIEQLEERNYALRKEIEDLQKQLEDL-NH2; lactam 31-35) as the compound, how does the “fold increase in antagonism relative to the linear counterpart 5” value ([3]; ratio of CD IC50) read?
Answer: Its value is 1.9 fold.

Question: What about the “Tm (° C.)” value [1] of the same compound?
Answer: The value was 68.3 ± 0.9 °C.

Question: Which results are given for “Ac-EDVLEEEIEQLEERNYALRKEIEDLQKQLEKLGAP-NH2 [Peptide 6]”?
Answer: fold reduction in antagonism relative to 5 ([3]; ratio of CD IC50): 1.7 fold; fold reduction in cJun/TRE antagonism relative to 1 ([3]; ratio of CD IC50): 9.7 fold; Tm (° C.) [1]: 55.1 ± 1.1 °C

Question: For “Ac-EAEELVVEEDVLEEEIEQLEERNYALRKEIEDLQKQ-NH2 [Peptide 11]”, which “fold reduction in antagonism relative to 4” value ([3]; ratio of CD IC50) is on record?
Answer: Its value is 1.8 fold.

Question: What about the “Tm (° C.)” value [1] of the same compound?
Answer: Its value is 57.1 ± 0.9 °C.

Question: And the “ΔG” value [4]?
Answer: The value was -8.15 ± 0.098 kcal/mol.

Question: What about the “ΔH” value [4] of the same compound?
Answer: Its value is -5.989 ± 0.813 kcal/mol.

Question: What about the “−TΔS” value [4] of the same compound?
Answer: Its value is -2.14 ± 0.817 kcal/mol.

Question: And the “Stoichiometry, n” value [4]?
Answer: The value was 0.95 ± 0.09.

Question: Which “fold more effective antagonism than 10” value ([3]; ratio of CD IC50) does the source give for “Ac-LARENEELEKEAEELVVEEDVLEEEIEQLEERNYALRKEIEDLQKQLEKL-NH2 [Peptide 2]” here?
Answer: The value was 4 fold.

Question: What about the “fold reduction in cJun/TRE antagonism relative to 1” value ([3]; ratio of CD IC50) of the same compound?
Answer: The value was 1.2 fold.

Question: And the “Tm (° C.)” value [1]?
Answer: The value was 68.5 ± 1.1 °C.
